Laboratory results taken from the supplement of paper PMC10307832.

Columns and labels:
Assay in all cases: relative viability (nuclei count vs DMSO), 5 days (fraction); higher = more cells survive
[1] = tested on: NCI-H1355
Summary of the method: (§1)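 Relative viability divides the nuclei count in treated wells by that in vehicle wells. Lung cancer cell lines were seeded in 1536-well plates, dosed by pin tool the next day, and fixed and stained after 5 days in one step with final 0.05% Triton X-100, 1% formaldehyde and 1 ug/ml Hoechst. Dosing was a single drug or a fixed anchor-drug dose plus five library-drug doses (not always all listed) in √10 steps, and values are medians of duplicate plates imaged at 4×.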

[2] = tested on: UMC-11
Summary of the method: as §1

[3] = tested on: RERF-LC-KJ
Summary of the method: as §1

[4] = tested on: HCC-78
Summary of the method: as §1

[5] = tested on: SW 1573
Summary of the method: as §1

[6] = tested on: EPLC-272H
Summary of the method: as §1

[7] = tested on: NCI-H1755
Summary of the method: as §1

[8] = tested on: NCI-H1993
Summary of the method: as §1

[9] = tested on: HARA
Summary of the method: as §1

[10] = tested on: NCI-H596
Summary of the method: as §1

[11] = tested on: NCI-H838
Summary of the method: as §1

[12] = tested on: COR-L 105
Summary of the method: as §1

[13] = tested on: SK-MES-1
Summary of the method: as §1

[14] = tested on: NCI-H1975
Summary of the method: as §1

[15] = tested on: NCI-H2228
Summary of the method: as §1

[16] = tested on: HCC-366
Summary of the method: as §1

[17] = tested on: PC-3 [JPC-3]
Summary of the method: as §1

[18] = tested on: NCI-H520
Summary of the method: as §1

[19] = tested on: HCC-827
Summary of the method: as §1

[20] = tested on: LCLC-103H
Summary of the method: as §1

[21] = tested on: HCC-44
Summary of the method: as §1

[22] = tested on: LOU-NH91
Summary of the method: as §1

[23] = tested on: NCI-H1651
Summary of the method: as §1

[24] = tested on: NCI-H2170
Summary of the method: as §1

[25] = tested on: NCI-H1793
Summary of the method: as §1

Nc1cccc2c1CN(C1CCC(=O)NC1=O)C2=O (centres undefined) [Lenalidomide] + CS(=O)(=O)N1CCN(Cc2cc3nc(-c4cccc5[nH]ncc45)nc(N4CCOCC4)c3s2)CC1 [Pictilisib] (partner 1 µM)
relative viability ([1]; first compound 0.253 µM): 0.419 | relative viability ([1]; first compound 0.8 µM): 0.258 | relative viability ([1]; first compound 2.53 µM): 0.429 | relative viability ([1]; first compound 8 µM): 0.259 | relative viability ([2]; first compound 0.253 µM): 0.893 | relative viability ([2]; first compound 0.8 µM): 0.512 | relative viability ([2]; first compound 2.53 µM): 0.819 | relative viability ([2]; first compound 8 µM): 0.627 | relative viability ([3]; first compound 0.253 µM): 0.494 | relative viability ([3]; first compound 0.8 µM): 0.46 | relative viability ([3]; first compound 2.53 µM): 0.543 | relative viability ([3]; first compound 8 µM): 0.534 | relative viability ([4]; first compound 0.253 µM): 0.233 | relative viability ([4]; first compound 0.8 µM): 0.185 | relative viability ([4]; first compound 2.53 µM): 0.232 | relative viability ([4]; first compound 8 µM): 0.174 | relative viability ([5]; first compound 0.253 µM): 0.518 | relative viability ([5]; first compound 0.8 µM): 0.483 | relative viability ([5]; first compound 2.53 µM): 0.504 | relative viability ([5]; first compound 8 µM): 0.524 | relative viability ([6]; first compound 0.253 µM): 0.325 | relative viability ([6]; first compound 2.53 µM): 0.361 | relative viability ([6]; first compound 8 µM): 0.274 | relative viability ([7]; first compound 0.253 µM): 0.407 | relative viability ([7]; first compound 0.8 µM): 0.322 | relative viability ([7]; first compound 2.53 µM): 0.521 | relative viability ([7]; first compound 8 µM): 0.325 | relative viability ([8]; first compound 0.253 µM): 0.824 | relative viability ([8]; first compound 0.8 µM): 0.827 | relative viability ([8]; first compound 2.53 µM): 0.872 | relative viability ([8]; first compound 8 µM): 0.803 | relative viability ([9]; first compound 0.253 µM): 0.367 | relative viability ([9]; first compound 0.8 µM): 0.327 | relative viability ([9]; first compound 2.53 µM): 0.438 | relative viability ([9]; first compound 8 µM): 0.206 | relative viability ([10]; first compound 0.253 µM): 0.382 | relative viability ([10]; first compound 0.8 µM): 0.359 | relative viability ([10]; first compound 2.53 µM): 0.381 | relative viability ([10]; first compound 8 µM): 0.365 | relative viability ([11]; first compound 0.253 µM): 0.505 | relative viability ([11]; first compound 0.8 µM): 0.318 | relative viability ([11]; first compound 2.53 µM): 0.518 | relative viability ([11]; first compound 8 µM): 0.387 | relative viability ([12]; first compound 0.253 µM): 0.278 | relative viability ([12]; first compound 0.8 µM): 0.398 | relative viability ([12]; first compound 2.53 µM): 0.554 | relative viability ([12]; first compound 8 µM): 0.363 | relative viability ([13]; first compound 0.253 µM): 0.373 | relative viability ([13]; first compound 0.8 µM): 0.482 | relative viability ([13]; first compound 2.53 µM): 0.403 | relative viability ([13]; first compound 8 µM): 0.336 | relative viability ([14]; first compound 0.253 µM): 0.316 | relative viability ([14]; first compound 0.8 µM): 0.228 | relative viability ([14]; first compound 2.53 µM): 0.278 | relative viability ([14]; first compound 8 µM): 0.223 | relative viability ([15]; first compound 0.253 µM): 0.42 | relative viability ([15]; first compound 0.8 µM): 0.714 | relative viability ([15]; first compound 2.53 µM): 0.724 | relative viability ([15]; first compound 8 µM): 0.355 | relative viability ([16]; first compound 0.253 µM): 0.131 | relative viability ([16]; first compound 0.8 µM): 0.108 | relative viability ([16]; first compound 2.53 µM): 0.172 | relative viability ([16]; first compound 8 µM): 0.157 | relative viability ([17]; first compound 0.253 µM): 0.781 | relative viability ([17]; first compound 0.8 µM): 0.609 | relative viability ([17]; first compound 2.53 µM): 0.98 | relative viability ([17]; first compound 8 µM): 0.734 | relative viability ([18]; first compound 0.253 µM): 0.353 | relative viability ([18]; first compound 0.8 µM): 0.362 | relative viability ([18]; first compound 2.53 µM): 0.293 | relative viability ([18]; first compound 8 µM): 0.259 | relative viability ([19]; first compound 0.253 µM): 1.03 | relative viability ([19]; first compound 0.8 µM): 1.11 | relative viability ([19]; first compound 2.53 µM): 0.925 | relative viability ([19]; first compound 8 µM): 0.834 | relative viability ([20]; first compound 0.253 µM): 0.603 | relative viability ([20]; first compound 0.8 µM): 0.547 | relative viability ([20]; first compound 2.53 µM): 0.621 | relative viability ([20]; first compound 8 µM): 0.556 | relative viability ([21]; first compound 0.253 µM): 0.525 | relative viability ([21]; first compound 0.8 µM): 0.409 | relative viability ([21]; first compound 2.53 µM): 0.58 | relative viability ([21]; first compound 8 µM): 0.433 | relative viability ([22]; first compound 0.253 µM): 0.534 | relative viability ([22]; first compound 0.8 µM): 0.451 | relative viability ([22]; first compound 2.53 µM): 0.445 | relative viability ([22]; first compound 8 µM): 0.502 | relative viability ([23]; first compound 0.253 µM): 0.674 | relative viability ([23]; first compound 0.8 µM): 0.574 | relative viability ([23]; first compound 2.53 µM): 0.735 | relative viability ([23]; first compound 8 µM): 0.691 | relative viability ([24]; first compound 0.253 µM): 0.344 | relative viability ([24]; first compound 0.8 µM): 0.264 | relative viability ([24]; first compound 2.53 µM): 0.342 | relative viability ([24]; first compound 8 µM): 0.259 | relative viability ([25]; first compound 0.253 µM): 0.554 | relative viability ([25]; first compound 0.8 µM): 0.289 | relative viability ([25]; first compound 2.53 µM): 0.409 | relative viability ([25]; first compound 8 µM): 0.228
